Source: ChEMBL document CHEMBL4680171, “Oxadiazolylthiazoles as novel and selective antifungal agents” (Eur J Med Chem, 2020)
≈ marks a conversion by molar mass, not a printed value. Calls of active or inactive are those of the source. No cut-off for these calls is given here.

How the values were obtained:
Candida albicans [1] = assay: Antifungal activity against Candida albicans SS5314 assessed as reduction in fungal growth by CLSI based broth microdilution method; assay type: functional
Candida albicans [2] = assay: Antifungal activity against Candida albicans ATCC 10231 assessed as reduction in fungal growth incubated for 24 hrs by CLSI based broth microdilution method; assay type: functional
Candida albicans [3] = assay: Antifungal activity against fluconazole-resistant Candida albicans NR29448 assessed as reduction in fungal growth incubated for 24 hrs by CLSI based broth microdilution method; assay type: functional
[Candida] auris [4] = Antifungal activity against fluconazole-resistant Candida auris 381 assessed as reduction in fungal growth incubated for 24 hrs by CLSI based broth microdilution method; assay type: functional; conditions: Candidozyma auris
[Candida] auris [5] = Antifungal activity against fluconazole-resistant Candida auris 383 assessed as reduction in fungal growth incubated for 24 hrs by CLSI based broth microdilution method; assay type: functional; conditions: Candidozyma auris
[Candida] auris [6] = Antifungal activity against fluconazole-resistant Candida auris 384 assessed as reduction in fungal growth incubated for 24 hrs by CLSI based broth microdilution method; assay type: functional; conditions: Candidozyma auris
Nakaseomyces glabratus [7] = assay: Antifungal activity against Candida glabrata ATCC 66032 assessed as reduction in fungal growth incubated for 24 hrs by CLSI based broth microdilution method; assay type: functional
Nakaseomyces glabratus [8] = assay: Antifungal activity against Candida glabrata ATCC MYA-2950 assessed as reduction in fungal growth incubated for 24 hrs by CLSI based broth microdilution method; assay type: functional
Candida parapsilosis [9] = assay: Antifungal activity against Candida parapsilosis ATCC 22019 assessed as reduction in fungal growth incubated for 24 hrs by CLSI based broth microdilution method; assay type: functional; conditions: Lodderomyces parapsilosis
Candida parapsilosis [10] = assay: Antifungal activity against Candida parapsilosis CAB 502638 assessed as reduction in fungal growth incubated for 24 hrs by CLSI based broth microdilution method; assay type: functional; conditions: Lodderomyces parapsilosis
Pichia kudriavzevii [11] = assay: Antifungal activity against Candida krusei CAB 396420 assessed as reduction in fungal growth incubated for 24 hrs by CLSI based broth microdilution method; assay type: functional
Pichia kudriavzevii [12] = assay: Antifungal activity against Candida krusei ATCC 34135 assessed as reduction in fungal growth incubated for 24 hrs by CLSI based broth microdilution method; assay type: functional
Cryptococcus neoformans [13] = assay: Antifungal activity against Cryptococcus neoformans NR41298 assessed as reduction in fungal growth incubated for 48 hrs by CLSI based broth microdilution method; assay type: functional
Cryptococcus neoformans [14] = assay: Antifungal activity against Cryptococcus neoformans NR41300 assessed as reduction in fungal growth incubated for 48 hrs by CLSI based broth microdilution method; assay type: functional
Cryptococcus neoformans [15] = assay: Antifungal activity against Cryptococcus neoformans NR48770 assessed as reduction in fungal growth incubated for 48 hrs by CLSI based broth microdilution method; assay type: functional
[16] = test system: Cryptococcus gattii species complex; assay: Antifungal activity against Cryptococcus gattii NR43210 assessed as reduction in fungal growth incubated for 48 hrs by CLSI based broth microdilution method; assay type: functional, Cryptococcus bacillisporus
[17] = test system: Cryptococcus gattii species complex; assay: Antifungal activity against Cryptococcus gattii NR43209 assessed as reduction in fungal growth incubated for 48 hrs by CLSI based broth microdilution method; assay type: functional, Cryptococcus bacillisporus
Lactobacillus gasseri = assay: Antibacterial activity against Lactobacillus gasseri HM-400 assessed as reduction in bacterial growth by CLSI based assay
Lacticaseibacillus casei = assay: Antibacterial activity against Lactobacillus casei HM-334 assessed as reduction in bacterial growth by CLSI based assay; assay type: organism-based
Lactobacillus crispatus = assay: Antibacterial activity against Lactobacillus crispatus HM-370 assessed as reduction in bacterial growth by CLSI based assay
[18] = Cytotoxicity against African green monkey Vero cells assessed as reduction in cell viability incubated for 2 hrs by MTS assay; assay type: cell-based; conditions: chlorocebus sabaeus
Candida albicans [19] = assay: Fungicidal activity against Candida albicans SS5314 assessed as eradication of fungal count at 5XMIC measured after 2 hrs by time kill assay relative to control; assay type: functional
Vero = assay: Cytotoxicity against African green monkey Vero cells assessed as reduction in cell viability at 16 ug/ml incubated for 2 hrs by MTS assay; assay type: cell-based; conditions: chlorocebus sabaeus, dose 16 µg/ml
Candida albicans [20] = assay: Antifungal activity against Candida albicans SS5314 assessed as reduction in fungal growth incubated for 24 hrs by CLSI based broth microdilution method; assay type: functional
Aspergillus fumigatus [21] = assay: Antifungal activity against Aspergillus fumigatus NR 35303 assessed as reduction in fungal growth incubated for 24 hrs by CLSI based broth microdilution method; assay type: functional
Aspergillus fumigatus [22] = assay: Antifungal activity against Aspergillus fumigatus NR 35304 assessed as reduction in fungal growth incubated for 24 hrs by CLSI based broth microdilution method; assay type: functional
Candida albicans [23] = assay: Antibiofilm activity against Candida albicans NR29448 assessed as reduction in biofilm formation at 0.5XMIC incubated for 24 hrs by crystal violet staining based assay relative to control; assay type: functional
Candida albicans [24] = assay: Antibiofilm activity against 24 hrs preformed biofilm of Candida albicans NR29448 assessed as disruption of mature biofilm at 64 ug/ml incubated for 24 hrs by crystal violet staining based spectrophotometry relative to control; assay type: functional; conditions: dose 64.0 µg/ml
Candida albicans [25] = assay: Fungistatic activity against Candida albicans SS5314 at 5 to 10x MIC measured for 36 hrs by time kill assay; assay type: functional, organism-based
Candida albicans [26] = assay: Antifungal activity against Candida albicans SS5314 assessed as reduction in fungal growth measured after 10 passages by CLSI based broth microdilution method; assay type: functional, organism-based

| SMILES | MIC (Candida albicans [1]) | MIC (Candida albicans [2]) | MIC (Candida albicans [3]) | MIC ([Candida] auris [4]) | MIC ([Candida] auris [5]) | MIC ([Candida] auris [6]) | MIC (Nakaseomyces glabratus [7]) | MIC (Nakaseomyces glabratus [8]) | MIC (Candida parapsilosis [9]) | MIC (Candida parapsilosis [10]) | MIC (Pichia kudriavzevii [11]) | MIC (Pichia kudriavzevii [12]) | MIC (Cryptococcus neoformans [13]) | MIC (Cryptococcus neoformans [14]) | MIC (Cryptococcus neoformans [15]) | MIC [16] | MIC [17] | MIC (Lactobacillus gasseri) | MIC (Lacticaseibacillus casei) | MIC (Lactobacillus crispatus) | other results |
| --- | --- | --- | --- | --- | --- | --- | --- | --- | --- | --- | --- | --- | --- | --- | --- | --- | --- | --- | --- | --- | --- |
| C[C@@H]1[C@H](O)[C@@H](C)/C=C/C=C/C=C/C=C/C=C/C=C/C=C/[C@H](O[C@@H]2O[C@H](C)[C@@H](O)[C@H](N)[C@@H]2O)C[C@@H]2O[C@](O)(C[C@@H](O)C[C@@H](O)[C@H](O)CC[C@@H](O)C[C@@H](O)CC(=O)O[C@H]1C)C[C@H](O)[C@H]2C(=O)O [AMPHOTERICIN B] | 1 mg/L (≈ 1.08 µM) | 1 mg/L (≈ 1.08 µM) | 1 mg/L (≈ 1.08 µM) | 0.5 mg/L (≈ 0.541 µM) | 1 mg/L (≈ 1.08 µM) | 2 mg/L (≈ 2.16 µM) | 2 mg/L (≈ 2.16 µM) | 1 mg/L (≈ 1.08 µM) | 0.5 mg/L (≈ 0.541 µM) | 0.5 mg/L (≈ 0.541 µM) | 2 mg/L (≈ 2.16 µM) | 2 mg/L (≈ 2.16 µM) | 1 mg/L (≈ 1.08 µM) | 1 mg/L (≈ 1.08 µM) | 1 mg/L (≈ 1.08 µM) | 1 mg/L (≈ 1.08 µM) | 1 mg/L (≈ 1.08 µM) | > 128 mg/L | > 128 mg/L | > 128 mg/L | CC50 at 2 h [18]: 8 mg/L (≈ 8.66 µM); Activity (Candida albicans [19]): 100%; Activity (Vero): Toxic; MIC (Candida albicans [20]): 1 mg/L (≈ 1.08 µM) |
| OC(Cn1cncn1)(Cn1cncn1)c1ccc(F)cc1F [FLUCONAZOLE] | > 64 mg/L | 1 mg/L (≈ 3.27 µM) | > 128 mg/L | 2 mg/L (≈ 6.53 µM) | 128 mg/L (≈ 418 µM) | > 128 mg/L | 8 mg/L (≈ 26.1 µM) | 16 mg/L (≈ 52.2 µM) | 1 mg/L (≈ 3.27 µM) | 0.5 mg/L (≈ 1.63 µM) | 16 mg/L (≈ 52.2 µM) | 16 mg/L (≈ 52.2 µM) | 2 mg/L (≈ 6.53 µM) | 1 mg/L (≈ 3.27 µM) | 2 mg/L (≈ 6.53 µM) | 4 mg/L (≈ 13.1 µM) | 4 mg/L (≈ 13.1 µM) | > 128 mg/L | > 128 mg/L | > 128 mg/L | MIC (Aspergillus fumigatus [21]): > 64 mg/L; MIC (Aspergillus fumigatus [22]): > 64 mg/L; inhibition (INH) (Candida albicans [23]): 50%; Activity (Candida albicans [24]): inactive; Activity (Candida albicans [25]): Active; Activity (Candida albicans [26]): Active; MIC (Candida albicans [20]): 1 mg/L (≈ 3.27 µM) |
